Experiments:
[1] = Pharmacokinetic studies of compounds in mice; assay type: in vivo; settings: male mice, intragastric administration 10 mg/kg, plasma
Procedure: Activity Assay Example 3: Pharmacokinetic Studies of Compounds in Mice
In this test, 3 male mice were selected and divided into 1 group, 3 mice/group. All animals were fasted overnight before administration.
The intragastric administration dose was 10 mg/kg, and the administration volume was 10 mL/kg.
2.2 Preparation of Drug Solution
According to the animal body weight combined with the administration dose, the amount of the required drug solution was calculated. An appropriate amount of the test substance was weighed, added with 5% of the final volume of ethanol for dissolution, then added with 5% of the final volume of SolutolHS15, and finally added with PBS to the final volume, and mixed by vortex and fully dissolved to obtain a solution for intragastric administration (1 mg/mL). All solutions were prepared for immediate use.
2.3 Method of Administration
Before administration, the drug solution was placed on a magnetic stirrer in the animal laboratory and stirred for at least 10 min. During the administration process, vortex was continued to ensure uniformity of the drug solution. The theoretical volume of gavage administration was 10 mL/kg, which was administered with a syringe equipped with a gavage needle.
Before administration, the animals were weighed and the body weight of the animals involved in the experiment was recorded, and the administration volume of each animal was calculated according to the body weight. After administration, animals were promptly transferred back to the experimental cages to collect samples.
2.4 Observation of Animal Status
After administration, whether animals had abnormal reactions was observed immediately. If there were no abnormal reactions, animals were observed twice a day during the experiment. If abnormal reactions were found, they should be recorded in time, and the number of observations should be increased until the animals returned to normal or to the end of the experiment.
2.5 Sample Collection and Preservation
All experimental animals were fasted overnight before administration, and blood was collected at corresponding time points into blood collection tubes containing heparin sodium anticoagulant. After the whole blood was collected, the blood collection tube was gently shaken and placed on ice immediately, and then centrifuged (4° C., 4000 rpm, 10 min) to collect supernatant plasma samples, which were stored in a refrigerator at −80° C. before analysis.
2.6 Plasma Sample Processing and Analysis
The collected plasma samples were handed over to the Pharmacokinetic department for sample extraction, and the test substances in the plasma were extracted by protein precipitation method using organic reagents containing internal standards (acetonitrile:plasma=4:1, v/v). The extracted processed samples were submitted for quantitative concentration analysis by LC-MS/MS. According to the plasma concentration of each animal obtained by the analysis, software Kinetica (version 5.0) was used to calculate the main pharmacokinetic parameter eAUC30-120 according to the non-compartment model to evaluate the exposure amount; the test results are shown in Table 2: […]

AR = molecular target: T1, AR (Homo sapiens, UniProt P10275, T878A); test: Effects of compounds on AR expression in LNCaP cells (ELISA, DC50); assay type: cell-based; parameters: Measurement of the Effects of Drugs on the Expression of AR in Cells by ELISA Method; endogenous in cells; host or cells: LNCaP; settings: 24 hours of drug treatment, AR by ELISA
T1 sequence (P10275 1-920 T878A): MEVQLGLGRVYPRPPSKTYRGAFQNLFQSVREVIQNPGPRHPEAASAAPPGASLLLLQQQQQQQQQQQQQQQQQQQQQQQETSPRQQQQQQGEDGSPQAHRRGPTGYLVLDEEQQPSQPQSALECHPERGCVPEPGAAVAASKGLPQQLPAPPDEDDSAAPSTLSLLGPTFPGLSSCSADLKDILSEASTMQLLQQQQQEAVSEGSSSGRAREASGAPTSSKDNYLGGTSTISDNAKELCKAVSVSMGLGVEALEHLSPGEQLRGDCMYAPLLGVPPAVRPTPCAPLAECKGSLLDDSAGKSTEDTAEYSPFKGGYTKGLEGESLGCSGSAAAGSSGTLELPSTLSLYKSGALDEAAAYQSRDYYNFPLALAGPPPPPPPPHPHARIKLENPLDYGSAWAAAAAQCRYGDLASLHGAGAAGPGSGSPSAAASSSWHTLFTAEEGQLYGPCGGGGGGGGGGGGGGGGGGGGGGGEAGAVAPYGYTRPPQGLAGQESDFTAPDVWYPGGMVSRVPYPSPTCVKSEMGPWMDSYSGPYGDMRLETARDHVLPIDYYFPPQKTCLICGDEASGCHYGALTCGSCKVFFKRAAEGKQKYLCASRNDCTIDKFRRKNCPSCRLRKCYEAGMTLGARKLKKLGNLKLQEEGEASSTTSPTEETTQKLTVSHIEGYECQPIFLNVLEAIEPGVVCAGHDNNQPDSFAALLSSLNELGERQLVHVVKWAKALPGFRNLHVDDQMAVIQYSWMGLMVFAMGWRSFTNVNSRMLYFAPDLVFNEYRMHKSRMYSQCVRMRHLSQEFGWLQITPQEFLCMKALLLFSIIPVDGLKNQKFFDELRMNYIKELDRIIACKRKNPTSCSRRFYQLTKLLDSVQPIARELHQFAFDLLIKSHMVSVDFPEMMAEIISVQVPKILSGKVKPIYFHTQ
Outline: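 LNCaP cells at about 15,000/well were treated for 24 h with compound at 0.0001–2 μmol/L final. AR in cell lysates was measured by ELISA (OD450). Inhibition was relative to DMSO control after blank subtraction, and DC50 was calculated from it.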

SMILES | eAUC0.5-2 h [1] [ng·h/mL] | DC50 (AR) [nM]
Cc1ncsc1-c1ccc(CNC(=O)[C@@H]2C[C@@H](O)CN2C(=O)[C@@H](NC(=O)COCCOc2ccc(-c3ncc(N4C(=S)N(c5ccc(C#N)c(C(F)(F)F)c5F)C(=O)C4(C)C)cc3F)cc2F)C(C)(C)C)cc1 [Compound A91] | 3160 ± 2820 | 108
Cc1ncsc1-c1ccc(CNC(=O)[C@@H]2C[C@@H](O)CN2C(=O)[C@@H](NC(=O)COCCOCCOc2ccc(-c3ncc(N4C(=S)N(c5ccc(C#N)c(C(F)(F)F)c5F)C(=O)C4(C)C)cc3C(F)(F)F)cc2)C(C)(C)C)cc1 [Compound A93] | 275 ± 116 | 51.1
Cc1ncsc1-c1ccc(CNC(=O)[C@@H]2C[C@@H](O)CN2C(=O)[C@@H](NC(=O)COCCCCOc2ccc(-c3ncc(N4C(=S)N(c5ccc(C#N)c(C(F)(F)F)c5F)C(=O)C4(C)C)cc3F)c(F)c2)C(C)(C)C)cc1 [Compound A94] | 410 ± 38 | 58.4
Cc1ncsc1-c1ccc(CNC(=O)[C@@H]2C[C@@H](O)CN2C(=O)[C@@H](NC(=O)COCCCCOc2ccc(-c3ncc(N4C(=S)N(c5ccc(C#N)c(C(F)(F)F)c5F)C(=O)C4(C)C)cc3C(F)(F)F)c(F)c2)C(C)(C)C)cc1 [Compound A95] | 1234 ± 430 | 106
Cc1ncsc1-c1ccc(CNC(=O)[C@@H]2C[C@@H](O)CN2C(=O)[C@@H](NC(=O)COCCCCCOc2c(F)cc(-c3ncc(N4C(=S)N(c5ccc(C#N)c(C(F)(F)F)c5F)C(=O)C4(C)C)cc3F)cc2F)C(C)(C)C)cc1 [Compound A97] | 1690 ± 158 | 98.4
Cc1ncsc1-c1ccc(CNC(=O)[C@@H]2C[C@@H](O)CN2C(=O)[C@@H](NC(=O)COCCOCCOc2c(F)cc(-c3ncc(N4C(=S)N(c5ccc(C#N)c(C(F)(F)F)c5F)C(=O)C4(C)C)cc3F)cc2F)C(C)(C)C)cc1 [Compound A99] | 308 ± 288 | 23.2
Cc1ncsc1-c1ccc(CNC(=O)[C@@H]2C[C@@H](O)CN2C(=O)[C@@H](NC(=O)COCCCCOc2ccc(-c3ccc(N4C(=S)N(c5ccc(C#N)c(C(F)(F)F)c5F)C(=O)C4(C)C)cn3)cn2)C(C)(C)C)cc1 [Compound A100] | 720 ± 206 | 18.9
Cc1ncsc1-c1ccc(CNC(=O)[C@@H]2C[C@@H](O)CN2C(=O)[C@@H](NC(=O)COCCCCOc2ccc(-c3ncc(N4C(=S)N(c5ccc(C#N)c(C(F)(F)F)c5F)C(=O)C4(C)C)cc3C(F)(F)F)c(C(F)(F)F)c2)C(C)(C)C)cc1 [Compound A101] | 508 ± 171 | 115
Cc1ncsc1-c1ccc(CNC(=O)[C@@H]2C[C@@H](O)CN2C(=O)[C@@H](NC(=O)COCCCCOc2c(F)cc(-c3ccc(N4C(=S)N(c5ccc(C#N)c(C(F)(F)F)c5F)C(=O)C4(C)C)cn3)cc2F)C(C)(C)C)cc1 [Compound A103] | 984 ± 617 | 152
Cc1ncsc1-c1ccc(CNC(=O)[C@@H]2C[C@@H](O)CN2C(=O)[C@@H](NC(=O)[C@H]2CC[C@H](CNC(=O)c3ccc(-c4ccc(N5C(=S)N(c6ccc(C#N)c(C(F)(F)F)c6F)C(=O)C5(C)C)cn4)cc3F)CC2)C(C)(C)C)cc1 [Compound A105] | 379 ± 300 | 188
Cc1ncsc1-c1ccc([C@H](C)NC(=O)[C@@H]2C[C@@H](O)CN2C(=O)[C@@H](NC(=O)COCCCCOc2ccc(-c3ncc(N4C(=S)N(c5ccc(C#N)c(C(F)(F)F)c5F)C(=O)C4(C)C)cc3C(F)(F)F)cc2F)C(C)(C)C)cc1 [Compound A108] | 993 ± 201 | 136
Cc1ncsc1-c1ccc([C@H](C)NC(=O)[C@@H]2C[C@@H](O)CN2C(=O)[C@@H](NC(=O)COCCCCOc2ccc(-c3ncc(N4C(=S)N(c5ccc(C#N)c(C(F)(F)F)c5F)C(=O)C4(C)C)cc3F)c(C(F)(F)F)c2)C(C)(C)C)cc1 [Compound A109] | 557 ± 108 | 71.4

Source: US12606552B2, “Bifunctional compound, preparation method therefor, and use thereof” (SUZHOU KINTOR PHARMACEUTICALS, INC., priority 2020, dated 2026)
